Here are results for 36 compounds from ChEMBL document CHEMBL4028811, “Discovery of 2-substituted 1H-benzo[d]immidazole-4-carboxamide derivatives as novel poly(ADP-ribose)polymerase-1 inhibitors with in vivo anti-tumor activity” (Eur J Med Chem, 2017).

Structures are written as SMILES.

The target of this assay is Poly [ADP-ribose] polymerase 1 (Homo sapiens, UniProt P09874). The assay is described as follows: Inhibition of recombinant human PARP1 expressed in Escherichia coli BL21(DE3) using histone as substrate measured after 1 hr in presence of biotinylated NAD+ by ELISA.
Chain of Poly [ADP-ribose] polymerase 1 (P09874 whole entry): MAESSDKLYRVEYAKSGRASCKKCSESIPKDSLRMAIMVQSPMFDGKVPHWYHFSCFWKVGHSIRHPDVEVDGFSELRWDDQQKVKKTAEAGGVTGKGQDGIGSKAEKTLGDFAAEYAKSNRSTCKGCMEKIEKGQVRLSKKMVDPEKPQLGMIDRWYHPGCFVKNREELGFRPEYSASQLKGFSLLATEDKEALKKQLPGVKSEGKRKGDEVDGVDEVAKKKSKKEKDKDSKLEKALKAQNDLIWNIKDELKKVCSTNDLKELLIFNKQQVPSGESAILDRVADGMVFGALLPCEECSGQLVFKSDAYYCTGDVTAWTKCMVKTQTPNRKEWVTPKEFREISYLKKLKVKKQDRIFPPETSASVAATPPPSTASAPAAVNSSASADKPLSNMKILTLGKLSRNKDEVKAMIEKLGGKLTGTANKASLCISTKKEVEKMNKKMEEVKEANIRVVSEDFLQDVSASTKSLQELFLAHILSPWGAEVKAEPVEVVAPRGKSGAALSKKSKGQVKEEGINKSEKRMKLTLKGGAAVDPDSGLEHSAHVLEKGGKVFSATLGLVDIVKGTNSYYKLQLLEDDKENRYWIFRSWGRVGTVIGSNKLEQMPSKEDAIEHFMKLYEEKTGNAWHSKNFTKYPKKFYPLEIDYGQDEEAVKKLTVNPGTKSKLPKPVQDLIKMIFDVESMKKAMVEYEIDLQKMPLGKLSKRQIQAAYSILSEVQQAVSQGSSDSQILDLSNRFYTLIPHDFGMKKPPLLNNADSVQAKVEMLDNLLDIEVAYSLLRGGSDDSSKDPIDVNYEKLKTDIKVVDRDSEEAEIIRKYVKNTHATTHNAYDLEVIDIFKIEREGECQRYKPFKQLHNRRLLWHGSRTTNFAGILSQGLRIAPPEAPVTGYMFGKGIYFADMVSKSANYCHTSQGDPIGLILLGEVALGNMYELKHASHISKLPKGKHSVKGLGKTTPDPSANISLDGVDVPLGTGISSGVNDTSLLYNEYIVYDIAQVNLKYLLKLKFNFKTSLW
One may read the IC50 as the concentration that gives 50% inhibition. `CC(C)(C)OC(=O)N1CCC(NC(=O)c2nc3c(C(N)=O)cccc3[nH]2)CC1`: the IC50 came to 644 nM.
With `NC(=O)c1cccc2[nH]c(C(=O)N3CCNCC3)nc12` the figure was 42 nM; with `CCN1CCC(NC(=O)c2nc3c(C(N)=O)cccc3[nH]2)CC1`, 40 nM.
Take `CCCN1CCC(NC(=O)c2nc3c(C(N)=O)cccc3[nH]2)CC1`: the IC50 turned out to be 49 nM.
With `CC(C)(C)OC(=O)N1CCC(NC2CCN(C(=O)c3nc4c(C(N)=O)cccc4[nH]3)CC2)CC1`, the IC50 stood at 250 nM.
For the compound `CC(C)(C)OC(=O)N1CCC(N2CCC(NC(=O)c3nc4c(C(N)=O)cccc4[nH]3)CC2)CC1`, the concentration for half-maximal inhibition (IC50) stood at 868 nM.
Consider `NC(=O)c1cccc2[nH]c(C(=O)N3C[C@H]4CCCN[C@H]4C3)nc12`, for which the IC50 was determined as 116 nM.
The result for `NC(=O)c1cccc2[nH]c(C(=O)N3CCC(NC4CCCCC4)CC3)nc12` reads 70 nM.
`CC[C@H]1CN(C(=O)c2nc3c(C(N)=O)cccc3[nH]2)CCN1`: the IC50 came out at 19 nM.
With `NC(=O)c1cccc2[nH]c(C(=O)N3CCNC(=O)C3)nc12` the figure was 29 nM.
In the case of `NC(=O)c1cc(F)cc2[nH]c(C(=O)N3CCNC(=O)C3)nc12`, the IC50 is 15 nM.
For the compound `NC(=O)c1cccc2[nH]c(C(=O)NC3CN4CCC3CC4)nc12` (stereo unspecified), the IC50 is more than 100 nM.
Take `CCC(CC)N1CCN(C(=O)c2nc3c(C(N)=O)cc(F)cc3[nH]2)CC1=O`: the IC50 came out at 88 nM.
With `NC(=O)c1cccc2[nH]c(C(=O)NC3CCN(C(=O)C(F)(F)F)CC3)nc12` the figure was 83 nM; with `NC(=O)c1cccc2[nH]c(C(=O)N3CCC(NC4CCNCC4)C3)nc12` (stereo unspecified), 60 nM.
Consider `CC(C)(C)OC(=O)N1CCC(NC2CCN(C(=O)c3nc4c(C(N)=O)cccc4[nH]3)C2)CC1` (stereo unspecified), for which the IC50 is 1190 nM.
On to `CC(C)N1CCC(NC(=O)c2nc3c(C(N)=O)cccc3[nH]2)CC1`, for which the IC50 is 64 nM.
With `CCC(CC)N1CCC(NC(=O)c2nc3c(C(N)=O)cccc3[nH]2)CC1` the figure was 302 nM.
Turning to `NC(=O)c1cccc2[nH]c(C(=O)N3CCC(NC4CCNCC4)CC3)nc12`, the IC50 was 316 nM.
On to `CC[C@H]1CN(C(=O)c2nc3c(C(N)=O)cccc3[nH]2)CCN1C(=O)OC(C)(C)C`, for which the IC50 is 100 nM.
The result for `NC(=O)c1cccc2[nH]c(C(=O)NC3CCN(C4CCCCC4)CC3)nc12` reads 311 nM.
The result for `CC[C@@H]1CN(C(=O)c2nc3c(C(N)=O)cccc3[nH]2)CCN1` reads more than 100 nM; that for `CC(C)(C)CN1CCC(NC(=O)c2nc3c(C(N)=O)cccc3[nH]2)CC1`, 41 nM.
The result for `CCC(=O)N1CCN(C(=O)c2nc3c(C(N)=O)cccc3[nH]2)CC1` reads more than 100 nM; that for `CC(C)(C)OC(=O)NC1CCN(C(=O)c2nc3c(C(N)=O)cc(F)cc3[nH]2)C1` (stereo unspecified), more than 100 nM.
For `NC(=O)c1cccc2[nH]c(C(=O)NC3CCN(C4CCNCC4)CC3)nc12`, the half-maximal inhibitory concentration (IC50) turned out to be 316 nM.
Consider `CC(C)(C)OC(=O)NC1CCN(C(=O)c2nc3c(C(N)=O)cccc3[nH]2)C1` (stereo unspecified), for which the concentration for half-maximal inhibition (IC50) amounted to 857 nM.
With `CC(C)(C)OC(=O)NC1CCN(C(=O)c2nc3c(C(N)=O)cccc3[nH]2)CC1` the figure was 968 nM.
`CC(C)(C)OC(=O)NC1CCN(C(=O)c2nc3c(C(N)=O)cc(F)cc3[nH]2)CC1`: the IC50 was found to be 80 nM.
With `CC[C@@H]1CN(C(=O)c2nc3c(C(N)=O)cccc3[nH]2)CCN1C(=O)OC(C)(C)C` the figure was more than 100 nM.
As for `CCC(CC)N1CCC(NC(=O)c2nc3c(C(N)=O)cc(F)cc3[nH]2)CC1`, the IC50 was 30 nM.
With `CC(C)(C)OC(=O)N1CCN(C(=O)c2nc3c(C(N)=O)cccc3[nH]2)CC1` the figure was 152 nM.
With `CCC(=O)NC1CCN(C(=O)c2nc3c(C(N)=O)cccc3[nH]2)C1` (stereo unspecified) the figure was 83 nM; with `CC(C)CN1CCN(C(=O)c2nc3c(C(N)=O)cccc3[nH]2)CC1`, 81 nM; with `CC(C)CN1CCC(NC(=O)c2nc3c(C(N)=O)cccc3[nH]2)CC1`, 92 nM.
With `CC(C)CCN1CCC(NC(=O)c2nc3c(C(N)=O)cccc3[nH]2)CC1` the figure was 111 nM.
